# In PMC8568133, “Evaluation of bisphenylthiazoles as a promising class for combating multidrug-resistant fungal infections” (PLoS ONE, 2021):
# Read-outs that look alike come from different tables or passages of the source.
# Columns and labels:
# [1] = system: human colorectal cells (Caco-2); assay: In vitro cytotoxicity, MTS assay; settings: human, 24 h
# Experimental: (§1) Fig 2 In vitro cytotoxicity assay of bisphenylthiazole compounds 7, 16 and 17 (tested in triplicates at 32, 64 and 128 μg/mL) against: A) human colorectal cells (Caco-2), and B) monkey kidney epithelial cells (Vero) after 24-hours exposure time, using the MTS 3-(4,5-dimethylthiazol-2-yl)-5-(3-carboxymethoxyphenyl)-2-(4-sulfophenyl)-2H-tetrazolium) assay. The data represent the percentage of viable Caco-2 or Vero cells measured as the average absorbance relative to DMSO after exposure to the tested compounds. Dimethyl sulfoxide (DMSO) was used as a negative control. Error bars represent the standard deviation values.
# (§2) To explore the tolerability of bisphenylthiazoles, their cytotoxicity profile was assessed in human colorectal adenocarcinoma (Caco-2) and monkey kidney epithelial cells (Vero) as described earlier. Briefly, compounds were incubated with the cells for 24 hours. Then, cells were incubated with MTS reagent for 3 hours before measuring the absorbance values (OD490). The experiment was repeated in two independent times.
# [2] = system: monkey kidney epithelial cells (Vero); assay: In vitro cytotoxicity, MTS assay
# Experimental: as §1, §2
# Aspergillus fumigatus = assay: Antifungal broth microdilution MIC (50% growth inhibition); type: cell-based; settings: Aspergillus fumigatus
# In short: (§3)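 Clinical isolates were tested in triplicate by CLSI broth microdilution over 128–0.06 μg/mL. MIC was the lowest concentration giving 50% growth inhibition after 35 °C incubation, 24 h for Candida, 48 h for Cryptococcus. For MFC, wells without growth were plated on YPD agar, 37 °C for 24 hours; MFC meant 99.9% growth reduction.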
# Candida parapsilosis = assay: as above; type: cell-based; settings: Lodderomyces parapsilosis, read-out: MIC
# In short: as §3
# [3] = system: C. difficile ATCC BAA1870; assay: Broth microdilution MIC, initial antibacterial screening (anaerobic); type: cell-based, Clostridioides difficile; settings: Clostridioides difficile, ATCCBAA1870, read-out: MIC
# In short: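 Broth microdilution per CLSI with ~5 × 10^5 CFU/mL inoculum and serially diluted compounds. S. aureus and E. coli were tested in CAMHB, aerobic, 37 °C, 18–20 h; C. difficile in supplemented brain heart infusion broth (yeast extract, hemin, vitamin K), anaerobic, 37 °C, 48 h. MIC read as visible growth.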
compound,measurement,setting,value
"Cc1nc(-c2ccc(-c3ccccc3)cc2)sc1-c1nnc(N[C@@H]2CCCC[C@@H]2N)o1 (relative stereo) [Compound 17, cis-N-{5-[2-((1,1’-Biphenyl)-4-yl)-4-methylthiazol-5-yl]-1,3,4-oxadiazol-2-yl}cyclo-hexane-1,2-diamine]",concentration up to which non-toxic,[1],≤ 64 µg/mL
same,concentration up to which non-toxic,"[2]; Vero, 24 h exposure, MTS",≤ 64 µg/mL
same,times more tolerable than amphotericin B,[2]; relative to amphotericin B,16 times
same,MIC,"Aspergillus fumigatus; A. fumigatus NR 35303, read-out: MIC",4 µg/mL
same,MIC,"Aspergillus fumigatus; A. fumigatus NR 35304, read-out: MIC",4 µg/mL
same,MIC,"Aspergillus fumigatus; tested A. fumigatus isolates (Table 5), read-out: MIC against Aspergillus fumigatus",4 µg/mL
same,MIC,"Candida parapsilosis; ATCC22019, C. parapsilosis ATCC 22019",1 µg/mL
same,MIC,Candida parapsilosis; C. parapsilosis CAB 502638,1 µg/mL
same,MIC,[3],64 µg/mL
